The values below come from patent US12595248B2, “PRMT5 inhibitors” (Merck Sharp & Dohme LLC, priority 2019, dated 2026).

Assay [1] deals with T1, PRMT5-MEP50 enzyme complex (Homo sapiens, UniProt O14744).
T1 construct: Full-length (FL)-PRMT5-MEP50 enzyme complex (recombinant proteins from baculovirus-transfected Sf21 cells: FL-PRMT5; MW=73837 kDa and FL-MEP50; MW=38614); made in house; host or cells: baculovirus-transfected Sf21 cells
Nature of the assay: PRMT5-MEP50 Enzyme Methylation Assay (Version A). The assay is classed as biochemical. As for the experimental part:
PRMT5-MEP50 Enzyme Methylation Assay (Version A)
PRMT5-MEP50 biochemical assay is a direct measurement of the methylation activity of the enzyme complex on a short peptide substrate derived from the N-terminus of H4 histone. Methylation experiment was performed with recombinant PRMT5-MEP50 protein complex. The assessment of inhibitory effect of small molecules was measured by the effectiveness of the compounds to inhibit this reaction (EC50).
In this assay, the potency (EC50) of each compound was determined from a twenty-point (1:2 serial dilution; top compound concentration of 100000 nM) titration curve using the following outlined procedure. To each well of a white ProxiPlus 384 well-plate, 100 nL of compound (1% DMSO in final assay volume of 10 μL) was dispensed, followed by the addition of 8 μL of 1× assay buffer (50 mM Bicine pH 8.0, 1 mM DTT, 0.004% Tween20, 0.01% BSA) containing 1.25 nM of Full-length (FL)-PRMT5-MEP50 enzyme complex (recombinant proteins from baculovirus-transfected Sf21 cells: FL-PRMT5; MW=[…] and FL-MEP50; MW=38614) and 1 μL of 150 μM S-(5′-Adenosyl)-L-Methionine Chloride (SAM). A plate was sealed and placed in a 37° C. humidified chamber for a 60 minutes pre-incubation with compound. Subsequently, each reaction was initiated by the addition of 1 μL 1× assay buffer containing 750 nM biotinylated H4R3 (MeI) peptide. The final reaction in each well of 10 μL consists of 1.0 nM PRMT5-MEP50, 75 nM biotinylated-peptide, and 15 μM SAM. Methylation reactions were allowed to proceed for 150 minutes in a sealed plate at 37° C. Reactions were immediately quenched by the addition of 1 μL of 5% formic acid. A plate was then frozen and shipped to SAMDI™ Tech Inc. to determine the percent conversion from H4R3 (MeI) to H4R3 (Me2). Dose-response curves were generated by plotting percent effect (% product conversion; Y-axis) vs. Log 10 compound concentrations (X-axis). EC50 values were determined by non-linear regression according to models for either sigmoidal (4 parameters) or biphasic (7 parameters) dose-response curves.

The target of assay [2] is T2, PRMT5 (Homo sapiens, UniProt O14744).
T2 construct: seeded with 4000 MCF-7 cells in 30 μl media; endogenous in cells; host or cells: MCF-7 cells
Briefly: PRMT5 Cell Target Engagement (TE) Assay. Format: cell-based. Particulars: MCF-7 cells, treated for 3 days, symmetric dimethylation of arginine (SDMA) by high content imaging. In short, it runs like this:
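MCF-7 cells treated 3 days at 37 °C with a ten-point 1:3 titration from 10000 nM. Fixed cells immunostained with anti-SDMA and Alexa488 secondary; nuclear fluorescence quantified by high-content imaging versus DMSO wells, with IC50 from a 4-parameter fit.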

The mark [3] stands for this setting: first of two EC50s: 7 parameters biphasic model, read-out: Enzyme Methylation Assay Version A (EC50_1).
The mark [4] stands for this setting: second of two EC50s: 7 parameters biphasic model, read-out: Enzyme Methylation Assay Version A (EC50_2).
The mark [5] stands for this setting: only one EC50 shown: 4 parameters single site sigmoidal model, 60 min pre-incubation with SAM, read-out: Enzyme Methylation Assay Version A (EC50).

Like-named read-outs stand apart in the source and are kept apart here.

T1 sequence (O14744 whole entry): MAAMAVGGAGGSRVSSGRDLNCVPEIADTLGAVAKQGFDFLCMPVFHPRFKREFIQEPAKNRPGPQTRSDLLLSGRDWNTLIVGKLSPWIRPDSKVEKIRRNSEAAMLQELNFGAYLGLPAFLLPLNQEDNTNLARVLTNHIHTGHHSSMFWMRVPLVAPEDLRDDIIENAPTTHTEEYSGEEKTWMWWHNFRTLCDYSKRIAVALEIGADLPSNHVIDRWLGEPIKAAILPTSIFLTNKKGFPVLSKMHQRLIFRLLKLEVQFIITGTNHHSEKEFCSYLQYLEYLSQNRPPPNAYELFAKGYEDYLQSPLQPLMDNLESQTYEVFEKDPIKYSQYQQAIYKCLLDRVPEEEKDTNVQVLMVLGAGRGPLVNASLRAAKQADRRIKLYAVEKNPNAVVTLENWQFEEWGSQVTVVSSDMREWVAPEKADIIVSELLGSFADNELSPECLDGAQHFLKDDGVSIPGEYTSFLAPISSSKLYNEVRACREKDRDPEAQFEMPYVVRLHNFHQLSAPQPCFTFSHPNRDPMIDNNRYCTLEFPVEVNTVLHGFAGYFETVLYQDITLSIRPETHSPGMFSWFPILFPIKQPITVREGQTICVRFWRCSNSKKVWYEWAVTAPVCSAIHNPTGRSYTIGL
T1 sequence (Q9BQA1 whole entry partner): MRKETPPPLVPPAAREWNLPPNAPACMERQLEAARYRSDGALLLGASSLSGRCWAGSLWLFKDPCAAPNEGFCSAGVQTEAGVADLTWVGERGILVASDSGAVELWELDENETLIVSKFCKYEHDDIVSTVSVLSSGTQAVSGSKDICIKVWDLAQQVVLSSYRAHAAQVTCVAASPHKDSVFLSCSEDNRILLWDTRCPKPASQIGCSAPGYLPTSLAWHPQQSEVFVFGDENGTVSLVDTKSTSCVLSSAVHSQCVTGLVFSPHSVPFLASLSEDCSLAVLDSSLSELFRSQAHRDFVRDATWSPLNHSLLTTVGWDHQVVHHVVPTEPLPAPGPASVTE
T2 sequence (O14744 whole entry): as the sequence (O14744 whole entry) above
T2 sequence (Q9BQA1 whole entry partner): as the sequence (Q9BQA1 whole entry partner) above

Consider `O=C(c1ccc2c(O)c(C3CC3)cnc2c1)N1CC[C@H](N2CCc3ccccc3C2)[C@@H](O)C1` [Example 63, (3-cyclopropyl-4-hydroxyquinolin-7-yl)((3S,4S)-4-(3,4-dihydroisoquinolin-2(1H)-yl)-3-hydroxypiperidin-1-yl)methanone], for which the EC50 stood at 0.7 nM in assay [1] (setting [3]), 3310 nM in assay [1] (setting [4]) and 140 nM in assay [2].

As to `CCN1CCNc2cc(C(=O)N3CC[C@H](N4CCc5ccccc5C4)[C@@H](O)C3)ccc2C1=O` [Example 64, 8-((3S,4S)-4-(3,4-dihydroisoquinolin-2(1H)-yl)-3-hydroxypiperidine-1-carbonyl)-4-ethyl-1,2,3,4-tetrahydro-5H-benzo[e][1,4]diazepin-5-one], the EC50 turned out to be 1.9 nM in assay [1] (setting [3]), 1660 nM in assay [1] (setting [4]) and 45 nM in assay [2].

As for `O=C(c1ccc2c(c1)NCCN(C1CCOC1)C2=O)N1CC[C@H](N2CCc3ccccc3C2)[C@@H](O)C1` (stereo partly drawn) [Example 65, 8-((3S,4S)-4-(3,4-dihydroisoquinolin-2(1H)-yl)-3-hydroxypiperidine-1-carbonyl)-4-(tetrahydrofuran-3-yl)-1,2,3,4-tetrahydro-5H-benzo[e][1,4]diazepin-5-one], the EC50 amounted to 3.5 nM in assay [1] (setting [5]) and 9.6 nM in assay [2].

On to `Cc1c(Br)cnc2nc(C(=O)N3CC[C@H](N4CCc5ccccc5C4)[C@@H](O)C3)cn12` [Example 66, (6-bromo-5-methylimidazo[1,2-a]pyrimidin-2-yl)((3S,4S)-4-(3,4-dihydroisoquinolin-2(1H)-yl)-3-hydroxypiperidin-1-yl)methanone], for which the EC50 in assay [1] (setting [3]) came out at 5.2 nM; in assay [1] (setting [4]) it was 861 nM; in assay [2], 1810 nM.

As for `Cc1nc2nc(C(=O)N3CC[C@H](N4CCc5ccccc5C4)[C@@H](O)C3)cn2cc1Br` [Example 67, (6-bromo-7-methylimidazo[1,2-a]pyrimidin-2-yl)((3S,4S)-4-(3,4-dihydroisoquinolin-2(1H)-yl)-3-hydroxypiperidin-1-yl)methanone], the EC50 was determined as 0.6 nM in assay [1] (setting [3]), 53 nM in assay [1] (setting [4]) and 49 nM in assay [2].

In the case of `COc1nc2nc(C(=O)N3CC[C@H](N4CCc5ccccc5C4)[C@@H](O)C3)cn2cc1Br` [Example 69, (6-bromo-7-methoxyimidazo[1,2-a]pyrimidin-2-yl)((3S,4S)-4-(3,4-dihydroisoquinolin-2(1H)-yl)-3-hydroxypiperidin-1-yl)methanone], the figures for the EC50 in assay [1] (setting [3]), in assay [1] (setting [4]) and in assay [2] were 1.2 nM, 733 nM and 55 nM, respectively.

Take `O=C(c1cn2cc(Br)c(O)nc2n1)N1CC[C@H](N2CCc3ccccc3C2)[C@@H](O)C1` [Example 70, (6-bromo-7-hydroxyimidazo[1,2-a]pyrimidin-2-yl)((3S,4S)-4-(3,4-dihydroisoquinolin-2(1H)-yl)-3-hydroxypiperidin-1-yl)methanone]: the EC50 is about 45 nM in assay [1] (setting [3]), 86100 nM in assay [1] (setting [4]) and over 10000 nM in assay [2].

Take `O=C(c1cn2cc(Br)cnc2n1)N1CC[C@H](N2CCc3ccccc3C2)[C@@H](O)C1` [Example 71, (6-bromoimidazo[1,2-a]pyrimidin-2-yl)[(3S,4S)-4-(3,4-dihydroisoquinolin-2(1H)-yl)-3-hydroxypiperidin-1-yl]methanone]: the EC50 in assay [1] (setting [5]) stood at 1.1 nM; in assay [2], 10 nM.

For `Cc1cnc2nc(C(=O)N3CC[C@H](N4CCc5ccccc5C4)[C@@H](O)C3)cn2c1` [Example 72, [(3S,4S)-4-(3,4-dihydroisoquinolin-2(1H)-yl)-3-hydroxypiperidin-1-yl](6-methylimidazo[1,2-a]pyrimidin-2-yl)methanone], the values for the EC50 in assay [1] (setting [3]), in assay [1] (setting [4]) and in assay [2] were 0.9 nM, 248 nM and 37 nM, respectively.

As to `Cc1nc2ncc(C(=O)N3CC[C@H](N4CCc5ccccc5C4)[C@@H](O)C3)n2cc1Br` [Example 75, (6-bromo-7-methylimidazo[1,2-a]pyrimidin-3-yl)[(3S,4S)-4-(3,4-dihydroisoquinolin-2(1H)-yl)-3-hydroxypiperidin-1-yl]methanone], the EC50 is 41 nM in assay [1] (setting [3]), 1550 nM in assay [1] (setting [4]) and 647 nM in assay [2].

For `Cc1c(Br)cnc2ncc(C(=O)N3CC[C@H](N4CCc5ccccc5C4)[C@@H](O)C3)n12` [Example 76, (6-bromo-5-methylimidazo[1,2-a]pyrimidin-3-yl)[(3S,4S)-4-(3,4-dihydroisoquinolin-2(1H)-yl)-3-hydroxypiperidin-1-yl]methanone], the EC50 stood at 3.1 nM in assay [1] (setting [3]), 1680 nM in assay [1] (setting [4]) and 2230 nM in assay [2].

`CC(C#N)c1cnc2nc(C(=O)N3CC[C@H](N4CCc5ccccc5C4)[C@@H](O)C3)cn2c1` (stereo partly drawn) [Example 77, 2-{2-[(3S,4S)-4-(3,4-dihydroisoquinolin-2(1H)-yl)-3-hydroxypiperidine-1-carbonyl]imidazo[1,2-a]pyrimidin-6-yl}propanenitrile]: the EC50 in assay [1] (setting [5]) was found to be 2.1 nM; in assay [2], 13 nM.

As to `O=C(c1cn2cc(Br)c(C3CC3)nc2n1)N1CC[C@H](N2CCc3ccccc3C2)[C@@H](O)C1` [Example 78, (6-bromo-7-cyclopropylimidazo[1,2-a]pyrimidin-2-yl)[(3S,4S)-4-(3,4-dihydroisoquinolin-2(1H)-yl)-3-hydroxypiperidin-1-yl]methanone], the EC50 in assay [1] (setting [5]) came to 0.7 nM; in assay [2], 21 nM.

For `CC(C)c1nc2nc(C(=O)N3CC[C@H](N4CCc5ccccc5C4)[C@@H](O)C3)cn2cc1Br` [Example 79, [6-bromo-7-(propan-2-yl)imidazo[1,2-a]pyrimidin-2-yl][(3S,4S)-4-(3,4-dihydroisoquinolin-2(1H)-yl)-3-hydroxypiperidin-1-yl]methanone], the EC50 in assay [1] (setting [5]) amounted to 0.7 nM; in assay [2], 4.9 nM.

On to `CC1(C)Oc2ccc(C(=O)N3CC[C@H](N4CCc5ccccc5C4)[C@@H](O)C3)cc2NC1=O` [Example 101, 6-((3S,4S)-4-(3,4-dihydroisoquinolin-2(1H)-yl)-3-hydroxypiperidine-1-carbonyl)-2,2-dimethyl-2H-benzo[b][1,4]oxazin-3(4H)-one], for which the values for the EC50 in assay [1] (setting [3]), in assay [1] (setting [4]) and in assay [2] were 0.9 nM, 2880 nM and 16 nM, respectively.

On to `O=C(c1ccc2c(c1)NCCN(CC(F)(F)F)C2=O)N1CC[C@H](N2CCc3ccccc3C2)[C@@H](O)C1` [Example 102, 8-((3S,4S)-4-(3,4-dihydroisoquinolin-2(1H)-yl)-3-hydroxypiperidine-1-carbonyl)-4-(2,2,2-trifluoroethyl)-1,2,3,4-tetrahydro-5H-benzo[e][1,4]diazepin-5-one], for which the EC50 in assay [1] (setting [3]) came to 1.5 nM; in assay [1] (setting [4]) it was 905 nM; in assay [2] it was 10 nM.

For the molecule `CC(C)(C)OC(=O)N1C2CCC1CC(Nc1cc(C(=O)N3CC[C@H](N4CCc5ccccc5C4)[C@@H](O)C3)c(F)cn1)C2` (stereo partly drawn) [Example 104, tert-butyl-3-((4-((3S,4S)-4-(3,4-dihydroisoquinolin-2(1H)-yl)-3-hydroxypiperidine-1-carbonyl)-5-fluoropyridin-2-yl)amino)-8-azabicyclo[3.2.1]octane-8-carboxylate], the figures for the EC50 in assay [1] (setting [5]) and in assay [2] were 1.7 nM and 42 nM, respectively.
